From patent publication US20260108584A1, “TREATMENT OF OBESITY-ASSOCIATED INFLAMMATORY CONDITIONS” (THE UNIVERSITY OF BIRMINGHAM, priority 2023, published 2026)

Legend:
pancreatic islets [1] = assay: Prophylactic PEPITEM, 6 weeks HFD: pancreatic islet immunofluorescence imaging; assay type: in vivo, C57BI/6J wild type (WT) mice
Procedure: (§1) Eight-week-old, male, C57BI/6J wild type (WT) mice were purchased from Charles River and were maintained in a specific pathogen free facility, with free access to food. Environmental conditions were: 21±2° C., 55±10% relative humidity and a 12 hour light-dark cycle. Mice were fed high fat diet (HFD) containing 60% fat (cat no. D12492, Research Diets, INC) for up to 12 weeks. […] Body weight was assessed weekly. Intraperitoneal glucose tolerance tests (IPGTT) were assessed at 3, 6, 8, and 12 weeks in mmol/l using Contour XT glucometer as described in Nasteska, D. et al., JCI Insight 6, doi: 10.1172/jci.insight. […]
(§2) Slides were imaged using Zeiss Axioscan 7 Slide Scanner at 20× magnification using the same acquisition parameters for each slide. Images were initially processed with ZEN Software (Black Edition v2.2) into digital arrays, which were subsequently analysed with ImageJ (1.53K). […] Average number of islets and islet area were determined and expressed as number or area/10,000 μm^2 of the whole pancreatic section area, as previously described by Slavin, B et al., Anat. […]

leukocyte trafficking [2] = assay: Therapeutic PEPITEM (last 6 of 12 weeks HFD): leukocyte subsets by flow cytometry; assay type: in vivo, C57BI/6J wild type (WT) mice
Procedure: (§3) Eight-week-old, male, C57BI/6J wild type (WT) mice were purchased from Charles River and were maintained in a specific pathogen free facility, with free access to food. Environmental conditions were: 21±2° C., 55±10% relative humidity and a 12 hour light-dark cycle. Mice were fed high fat diet (HFD) containing 60% fat (cat no. D12492, Research Diets, INC) for up to 12 weeks. Alzet mini pumps 2006 (Charles River) containing 3.5 mg/ml of PEPITEM (SVTEQGAELSNEER-PEG (352)-Amide; Cambridge Research Biochemicals Limited; Cambridge, UK) or phosphate buffered saline (PBS) were implanted at baseline (prophylactic administration) or following 6 weeks of HFD (therapeutic administration), continuously releasing 0.822 mg of content/week. Body weight was assessed weekly. Intraperitoneal glucose tolerance tests (IPGTT) were assessed at 3, 6, 8, and 12 weeks in mmol/l using Contour XT glucometer as described in Nasteska, D. et al., JCI Insight 6, doi: 10.1172/jci.insight. 140288 (2021). Mice were culled […] blood collected into ethylenediaminetetraacetic acid (EDTA) coated eppendorfs^RTM. The peritoneal cavity was lavaged with 5 mM EDTA, spleen and inguinal lymph nodes were isolated and stored in PBS. Gonadal visceral fat pads and abdominal subcutaneous fat was stored in RPMI 1640 media (Gibco) containing 2% BSA and pancreas was FFPE as described in Nasteska, D. et al (supra).
(§4) All tissue samples were weighed prior to processing. Fat tissue was broken into pieces, incubated in an enzyme cocktail consisting of 200 μg/ml Collagenase P (Sigma), 800 μg/ml Collagenase Dispase, 100 μg/ml DNase (both Merck) diluted in Roswell Park Memorial Institute medium (RPMI) containing 2% fetal bovine serum (FBS) at 37° C. for 30 min before being passed through 70 UM filter. Samples were washed by centrifugation in RPMI containing 2% FBS at 400 g (g-force) for 10 minutes and the stromal vascular fraction re-suspended in red blood cell (RBC) lysis buffer for 10 minutes. Samples were then washed by centrifugation at 400 g and re-suspended in RPMI containing 2% FBS. The spleen and lymph node were crushed through a […] filter. Spleen, lymph node and blood samples were all incubated in the RBC lysis buffer as described prior to re-suspension in magnetic-activated cell sorting (MACS) buffer. Peritoneal lavage fluid (PLF) were centrifuged at 400 g for 5 minutes and the cells were resuspended in MACS buffer.
(§5) All samples were blocked with Fc receptor (FcR) blocker (Miltenyi Biotec) prior to staining with the following of antibodies and Zombie Aqua (Biolegend) for 20 minutes at 4° C. prior to washing and fixation with 2% paraformaldehyde (PFA): anti-CD45.2 BV605 (clone 104; Biolegend), anti-CD3 PECy7 (clone 145-2c11), anti-CD4 eFluor450 (clone GK1.5), anti-CD8 PE-TexasRed ^RTM (clone 5H10), anti-CD44 FITC (clone IM7), anti-CD25 AF700 (clone PC61.5), anti-KLRG1 APC-eFluor780 (clone 2F1), anti-CD62L PE (clone MEL-14), anti-CD19-APC (clone 1D3), anti-CD45 APC-CY7 (clone 104), F4/80 FITC (clone BM8), anti-CD11c PE-Cy7 (clone N418), anti-Gp38 PE (clone 8.1.1; all from Thermofisher); anti-CD23 BV421 (clone B3B4), anti-CD93 BV650 (clone AA4.1), anti-CD43 PerCp-Cy5.5 (clone S7), anti-CD21/35 PE (clone 7G6), anti-Siglec F TexasRed^RTM (clone E50-2440), Ly6G APC (clone 1A8; all from BD). Compensation controls were generated using the cells isolated from the spleen. Immediately prior to analysis CountBright beads (Invitrogen) were added and samples were acquired using Fortessa-X20 and data analysed offline using FlowJo^RTM (V-10.2.6) (FIG. 4).

[3] = Therapeutic PEPITEM (last 6 of 12 weeks HFD): body weight and IPGTT; assay type: in vivo, C57BI/6J wild type (WT) mice
Procedure: as §3

[4] = Prophylactic PEPITEM, 6 weeks HFD: body weight and IPGTT; assay type: in vivo, C57BI/6J wild type (WT) mice
Procedure: as §3

[5] = system: J774 murine macrophages cells; assay: In vitro cytokine analysis, LPS-stimulated J774 cells (ELISA); assay type: cell-based; settings: 10 ng ml^−1 PEPITEM 15 minutes pre-treatment, LPS (10 μg ml^−1) 24 h, vs PBS (FIG. 7)
Procedure: J774 murine macrophages cells were pre-treated with 10 ng ml^−1 PEPITEM (SVTEQGAELSNEER; Cambridge Research Biochemicals Limited; Cambridge, UK) or phosphate buffered saline (PBS—as control) for 15 minutes and then stimulated with LPS (10 μg ml^−1) for 24 h. Cell supernatants were collected and analysed for the protein expression of IL-6 and TNF-α by ELISA.

pancreatic islets [6] = assay: Therapeutic PEPITEM (last 6 of 12 weeks HFD): pancreatic islet immunofluorescence imaging; assay type: in vivo, C57BI/6J wild type (WT) mice
Procedure: as §1, §2

leukocyte trafficking [7] = assay: Prophylactic PEPITEM, 6 weeks HFD: leukocyte subsets by flow cytometry; assay type: in vivo, C57BI/6J wild type (WT) mice
Procedure: as §3, §4, §5

Substance: PEPITEM [SVTEQGAELSNEER, 14-amino-acid immunopeptide derived from 14.3.3.ζδ]
- number of pancreatic islets (pancreatic islets [1]; vs PBS (FIG. 1(C))): no effect
- individual area of pancreatic islets (pancreatic islets [1]; vs PBS (FIG. 1(D))): significantly reduced
- CD3+KLRG1+ T-cells numbers in the peritoneal cavity (leukocyte trafficking [2]; therapeutic (FIG. 2(H))): no effect
- number of CD3+KLRG1+ T-cells in the blood (leukocyte trafficking [2]; therapeutic (FIG. 2(I))): lower
- number of age-associated B-cells in the blood (leukocyte trafficking [2]; therapeutic (FIG. 2(J))): lower
- number of neutrophils in the blood (leukocyte trafficking [2]; therapeutic (FIG. 2(K))): lower
- composition of leukocyte subsets in subcutaneous adipose tissue (leukocyte trafficking [2]; therapeutic (data not shown)): no effect
- B-cell numbers in the spleen (leukocyte trafficking [2]; therapeutic, vs PBS (FIG. 3(E))): elevated
- age-associated B-cell numbers in the spleen (leukocyte trafficking [2]; therapeutic, vs PBS (FIG. 3(F))): elevated
- number of CD45+ leukocytes in the spleen (leukocyte trafficking [2]; therapeutic, vs control animals (FIG. 3(A))): increased
- number of CD3+ T-cells in the spleen (leukocyte trafficking [2]; therapeutic, vs control animals (FIG. 3(B))): increased
- number of CD45+ leukocytes in the inguinal lymph node (leukocyte trafficking [2]; therapeutic, vs control animals (FIG. 3(C))): increased
- number of CD3+ T-cells in the inguinal lymph node (leukocyte trafficking [2]; therapeutic, vs control animals (FIG. 3(D))): increased
- number of CD3+ T-cells in the VAT (leukocyte trafficking [2]; therapeutic, vs vehicle control (FIG. 2(D))): significant reduction
- number of CD4+ T-cells in the VAT (leukocyte trafficking [2]; therapeutic, vs vehicle control (FIG. 2(E))): significant reduction
- number of CD3+KLRG1+ T-cells in the VAT (leukocyte trafficking [2]; therapeutic, vs vehicle control (FIG. 2(F))): significant reduction
- macrophage numbers in the peritoneal cavity (leukocyte trafficking [2]; therapeutic, vs vehicle control (FIG. 2(G))): significant reduction
- glucose tolerance ([3]; 8 or 12 weeks of diet, therapeutic (FIG. 5(D))): no effect
- weight of the mouse ([3]; 12 weeks HFD, therapeutic (FIG. 5(C))): no effect
- body weight ([4]; 6 weeks HFD, prophylactic mini pump, vs PBS (FIG. 5(A))): unaffected
- fasting glucose tolerance or insulin resistance ([4]; week 3 or 6 of HFD, prophylactic, vs PBS (FIG. 5(B))): no effect
- amount of IL-6 secreted [5]: significant reduction
- amount of TNFalpha secreted [5]: significant reduction
- overall number of islets (pancreatic islets [6]; vs control mice (FIG. 2(B))): without affecting
- pancreatic islet size (pancreatic islets [6]; vs control mice (FIG. 2(C))): significantly reduced
- number of T-cell subsets, B-cell subsets, neutrophils, eosinophils or macrophages in the blood, inguinal lymph node or spleen (leukocyte trafficking [7]; 6 weeks HFD, prophylactic (FIG. 6)): no effect
- T-cells (CD3+) in visceral adipose tissue (leukocyte trafficking [7]; 6 weeks HFD, prophylactic, vs HFD control (FIG. 1(E))): Significantly fewer
- CD4+ T cells in visceral adipose tissue (leukocyte trafficking [7]; 6 weeks HFD, prophylactic, vs HFD control (FIG. 1(F))): Significantly fewer
- KLRG1+CD3+ T-cells in visceral adipose tissue (leukocyte trafficking [7]; 6 weeks HFD, prophylactic, vs HFD control (FIG. 1(G))): Significantly fewer
- T-cells (CD3+) in peritoneal cavity (leukocyte trafficking [7]; 6 weeks HFD, prophylactic, vs HFD control (FIG. 1(H))): Significantly fewer
- KLRG1+CD3+ T-cells in peritoneal cavity (leukocyte trafficking [7]; 6 weeks HFD, prophylactic, vs HFD control (FIG. 1(I))): Significantly fewer
- macrophages within the peritoneal cavity (leukocyte trafficking [7]; 6 weeks HFD, prophylactic, vs PBS (FIG. 1(J)), back to levels of chow-fed mice): significant reduction
- absolute numbers of macrophages in the VAT (leukocyte trafficking [7]; HFD-fed mice, model (6 or 12 weeks) not specified): did not influence
